Measured values published in patent publication US12685725B2, “Pridopidine for the treatment of mitochondrial-associated diseases and disorders and endoplasmic reticulum (ER) stress” (PRILENIA NEUROTHERAPEUTICS LTD., priority 2019, dated 2026).
Read-outs that look alike come from different tables or passages of the source.

What was measured:
[1] = test system: WT and YAC128 striatal neurons; details: 1 μM, 24 h
Description: To obtain pure cortical and striatal neurons, tissue was micro-dissected in HBSS supplemented with 0.3% fatty acid free BSA (Sigma-Aldrich, catalog no: A8806). Tissue from embryos with the same genotype were pooled and digested with 0.003% trypsin in HBSS, then mechanically digested. […] (Sigma-Aldrich, catalog no: T9128) was used to block the trypsin. […] Cultures were incubated at 37° C. with 5% CO2. After 3 days in vitro (DIV) half of the medium was replaced with fresh supplemented Neurobasal medium containing 5-fluoro-2′-deoxyuridine (5-FdU, 5 μM final concentration in the medium; Sigma-Aldrich, catalog no: F0503) to reduce dividing non-neuronal cells. At DIV 7 half of the medium was again replaced with fresh, and cells were used at DIV12.
The ultrathin sections were prepared using Leica Ultracut UCT (Leica, Vienna, Austria) and contrasted with uranyl acetate and lead citrate. […] All mitochondria of 6-7 different cells were snapped per condition and per independent experiment. Number of mitochondria-ER contacts sites (MERCS), MERCS length, ER and mitochondria profile areas, ER width and mitochondria aspect ratio (the ratio between the major and minor axes of mitochondria) were quantified. Number of MERCS per mitochondria was obtained by dividing number of MERCS per number of mitochondria profiles. Percentage of mitochondria surface covered by ER was measured by dividing the MERCS length by mitochondria perimeter and multiplying by 100. MERCS were considered when the distance between ER and mitochondria <40 nm.

[2] = test system: S1R-silenced HD lymphoblasts; details: 5 μM, 24 h
Description: S1R depletion was induced by treating with S1R-directed siRNA duplexes (Origene, cat no: SR426072). siRNA transfection was performed in antibiotic-free growth medium using the Polyplus JETPRIME transfection protocol as per manufacturer's instructions (Polyplus). Forty-eight hours after transfection the cells were subjected to pridopidine treatment and/or oxidative stress challenge. S1R knockdown efficiency was determined by Immunoblot analysis.
TMRE assay: Primary neurons and lymphoblasts in suspension were cultured in 6-well plates.

[3] = test system: STHdh^Q7/7 cells expressing Htt96Q-mCherry or Htt20Q-mCherry
Description: Transfections of HEK 293 cells were carried out according to the calcium phosphate method. STHdh^Q7/7 cells are a murine striatal cell line with a stable knock-in of the full-length wild type (WT) human Htt containing a polyglutamine stretch of 7 glutamines (Trettel et al. 2000). […] No cell line used is listed as a commonly misidentified cell line. Cell lines were not authenticated. To reduce any risk of cross-contamination they were grown for a limited number of passages. Transient transfections of NIH 3T3 and STHdh^Q7/7 cells were performed using an MP-100 Microporator (Digital Bio) or ViaFect™ Transfection Reagent (Cat.No. E4981) (Promega), according to the manufacturer's protocols.
Briefly, cells grown for 24 h after transfection on coverslips in 24-well plates were fixed with 3% paraformaldehyde, followed by blocking with 50 mM glycine in PBS and normal goat IgG in PBS/2% BSA. The cells were incubated with primary antibodies for 1 h, washed and incubated for 30 min with secondary antibodies, followed by washes. Nuclei were stained with 4′,6-diamidino-2-phenylindole (Cat.No. F6057) (Sigma). Confocal microscopy was done on a Zeiss laser scanning confocal microscope (LSM 510; Carl Zeiss, Jena, Germany) as described previously. ImageJ was used to quantify fluorescence intensity in images of treated individual cells compared to untreated cells with and without Htt96Q-mCherry aggregates and to calculate Mander's coefficients for colocalization studies.

[4] = test system: Htt96Q aggregates in S1R+/+ and S1R−/− HEK 293 cells; details: 24 h
Description: HEK 293 cells were grown on 60 mm plates and transfected for the expression of myc-Htt96Q. Cells were collected 24 hours post-transfection. After washing with 1×PBS cells were resuspended in 100 μl of 1×PBS+ protease inhibitor cocktail. Sonication was done in a sonic bath for 3×10 sec (amp5-6), leaving on ice for 30 sec between the sonications. Cell debris were removed by centrifugation at 16,000×g for 15 min and protein concentration was measured in the supernatant using the BCA method. Samples containing 50 μg total protein were taken and the volume adjusted to 100 μl with 1% SDS in PBS. After incubation for 5 min at 100° C. sample duplicates were loaded on the slots of a nitrocellulose membrane pre-wet with 1% SDS in PBS in a dot-blotting apparatus. Slots were washed twice with 1 ml 1% SDS in PBS and the membrane was transferred to 5% milk blocking solution. Immunoblotting was performed as described above.

[5] = test system: cortico-striatal co-cultures (YAC128); details: Y128, 1 μM, n=4
Description: For cortico-striatal co-cultures, brains were removed and transferred to Hibernate E medium (Thermo Fisher Sci., catalog no: A1247601) for up to 24 h. […] The cortex and striatum were micro-dissected in ice-cold Hank's balanced salt solution (HBSS; Gibco), then diced and pooled per genotype. […] The dissociated tissues were centrifuged at 145×g for 5 min and the pellet was then triturated with a pipette five to six times. […] The cells were fed with ⅓ volume fresh medium every fifth day.
The stained cells were washed twice with PBS and fixed with ice-cold methanol for 15 min at room temperature. Mitochondria were visualized using the SP5 confocal microscope (Leica). 8 random areas were sampled. Circularity was determined using ImageJ with an internal plugin.

HD lymphoblasts = details: 5 μM, H2O2-challenged conditions, p=0.0001
Description: H2O2 (9.8 M stock) was dissolved in cell culture medium prior to experimentation. Primary neurons and lymphoblasts cultured on PDL-coated plates were treated with H2O2 (0-1 mM) for up to 6 hours. Oxidative stress was measured using the CellROX red reagent (Life Technologies, catalog no. C10422). Cells were treated with 5 μM CellRox red in complete medium, then incubated for 30 minutes. The cells were then washed with PBS and imaged on a Zeiss Axiovert inverted microscope (Zeiss, Jena, Germany) using a 10× objective. Exposure settings were maintained for all samples. Eight random fields were sampled, and the fluorescence intensity was measured using ImageJ software and normalized to the DAPI signal.

[6] = YAC128 striatal neurons, p<0.0001

Compound: CCCN1CCC(c2cccc(S(C)(=O)=O)c2)CC1 [Pridopidine, 4-[3-(methylsulfonyl)phenyl]-1-propyl-piperidine]
- percent of mitochondrial surface in contact with ER ([1]; WT neurons, p=0.0339): significantly increases the percent of mitochondrial surface in contact with ER
- proportion of elongated mitochondria (aspect ratio) ([1]; Y128 striatal neurons, p=0.0044): increases the proportion of elongated mitochondria in Y128 striatal neurons to WT levels
- ER width ([1]; YAC128 neurons, p<0.0001): restores the abnormal ER width
- number of MERCS per mitochondria [1, 6]: increasing the number of MERCS per mitochondria
- percent of mitochondrial surface in contact with ER [1, 6]: increasing the number of MERCS per mitochondria and the percent of mitochondrial surface in contact with ER
- mitochondrial membrane potential signal after H2O2 stimulation ([2]; S1R+/+ cells): increases TMRM signal after H2O2 stimulation
- effect on mitochondrial membrane potential ([2]; absence of the S1R (silenced ~83%), p<0.0001): abolished
- H2a-GFP accumulation, of the untreated control ([3]; cells positive for mHtt (Htt96Q-mCherry) aggregates): 40%
- ER stress (H2a-GFP relative intensity), dose dependence ([3]; cells with Htt96Q-mCherry aggregates, from 0.03 to 150 μM): significantly reduces ER stress in a dose-dependent manner
- H2a-GFP levels ([3]; cells without aggregates or cells expressing Htt20Q-mCherry): does not alter H2a-GFP levels
- percent of cells that show visible Htt96Q-mCherry aggregates ([3]; expression of Htt96Q-mCherry for 24 h): unchanged
- increase of the amount of Htt96Q in SDS-insoluble aggregates ([4]; S1R+/+ cells): up to 35%
- effect on Htt96Q in SDS-insoluble aggregates ([4]; S1R−/− cells): abolished
- mitochondrial morphology (percentage of circular and elongated mitochondria) [5]: corrects Y128 morphology to WT levels
- decrease of ROS levels (CellRox) (HD lymphoblasts): 57%
